According to US20200222418A1, “USE OF PHENOTHIAZINE DERIVATIVE IN THE TREATMENT OF INFECTION CAUSED BY BACTERIA CARRYING TYPE IV PILI” (priority 2017, published 2020):
“Also recorded” adds a separate entry of the source.

Assays:
[1] = test system: Nm2C4.3 microcolonies on HBMEC, human bone marrow endothelial cell line; assay: Dispersion of meningococcal microcolonies on HBMEC (vascular colonisation index); assay type: cell-based, Neisseria meningitidis; conditions: 30 min, Trifluoperazine 10-40 μM, Gentamicin 150 μg/ml, Cefotaxim 20 μg/ml
Procedure: Human […] microvascular endothelial cells (HBMEC) were infected with Nm2C4.3 for 1 h 30, treated with Trifluoperazine (10-40 μM) for 30 minutes, before fixation and immunofluorescence analysis using anti-Nm2C4.3 antibody and Alexa Fluor 633 Phalloidin. (A) Representative fluorescence microscopy showing bacterial colony (white dots) formed at the surface of the endothelial cells. (B) Quantification of the bacterial colonization was performed using Image J software.
HBMEC, a human endothelial cell line isolated from […] capillaries (Schweitzer et al., 1997) were grown in Dulbecco's Modified Eagle Medium (DMEM) 4.5 g/L-Glutamax (ThermoFischer) 10% FBS. Cells were grown on Thermanox coverslips coated with gelatin 2% (BD Difco #214340) for 2 days to reach confluency. Cells were then infected with a suspension of Nm2C4.3 (˜10^7 CFU/ml) in DMEM/FBS during 30 minutes to allow bacterial adhesion. Cells were then washed three times with medium to remove non-adherent bacteria and infection was pursued for 1 h 30: adherent bacteria grew at the endothelial cell surface and formed micro-colonies. Trifluoperazine was then added to obtain final concentrations of 10, 20, 30 and 40 μM. After incubation for 30 minutes, cells were washed and fixed in 4% Paraformaldehyde for 10 min, washed three times with PBS, and permeabilized with 0.1% Triton X-100 in PBS for 10 min. Cells were blocked for 30 min with 3% BSA in PBS and were incubated for 2 h with the primary antibodies (Rabbit polyclonal anti-Nm2C4.3 strain, kindly provided by Dr X. Nassif, INEM, Paris). After three washes with PBS, cells were incubated for 1 h with […] anti-rabbit IgG (Jackson ImmunoResearch Laboratories), together with Alexa Fluor 633 Phalloidin (Thermofischer) and DAPI ([…], Sigma Aldrich) to stain Actin and nuclei, respectively. Labelled preparations were mounted in Glycergel media (DAKO) and image acquisitions were performed with a DM16000 microscope (Leica, X40). Quantification was done with ImageJ software (NIH). […]

[2] = test system: N. meningitidis Nm2C4.3 strain; assay: Bactericidal activity, colony forming unit count after treatment in liquid culture; assay type: cell-based, Neisseria meningitidis; conditions: 15 min; for bactericidal effect: Gentamicin 150 μg/ml, Trifluoperazine 10 to 50 μM
Procedure: N. meningitidis Nm2C4.3 strain grown in liquid culture at 10^7 CFU/ml were treated with increasing concentrations of Trifluoperazine (10 to 50 μM) or Gentamicin (150 μg/ml) for 15 minutes (A) Bactericidal activity was determined by the count of colony forming units on GCB agar plates 24 h after treatment. (B) Images of the non-treated bacteria or bacteria treated with 30 μM TFP grown for 24 h on GCB agar plates.
Nm2C4.3, a piliated capsulated Opa^−Opc^− variant of the serogroup C meningococcal clinical isolate 8013, was cultured in Dulbecco's Modified Eagle Medium (DMEM) 4.5 g/L-Glutamax media 0.1% BSA during two hours at 37° C. 5% CO2. A bacterial suspension at optical density (OD) 0.1 was then distributed in 24-well plate (1 ml/well). After 1 hour of incubation, Trifluoperazine (Sigma #T8516, stock solution in PBS) was added to obtain final concentrations of 10, 20, 30, 40, and 50 μM. Gentamicin (150 μg/ml in DMEM) and PBS alone were used as controls. After 15 min treatment, serial dilutions were performed in physiological water and 100 μl of each dilution were plated on Petri dishes containing GCB solid media (BD, Difco GC media) containing supplements, incubated overnight and the colony forming units were counted.

[3] = test system: HDMECs infected with Nm2C4.3; assay: Cytoskeleton remodelling and cell junction integrity of infected HDMEC (immunofluorescence); assay type: cell-based, human; conditions: Gentamicin 150 μg/ml 1 h, Trifluoperazine 50 μM applied after gentamicin
Procedure: (A) Experimental procedure: HDMEC were infected for 2 h with Nm2C4.3, treated for 1 h with gentamicin (150 μg/ml) and then 15 min with Trifluoperazine (50 μM) (or solvent alone as a control) and left in medium for 1 h before fixation. (B) Upper panels: Representative fluorescence microscopy showing the effect on the endothelial cell cytoskeleton remodelling analysed by immunostaining of Ezrin and Actin. Lower panels: Effect on the endothelial cell junction integrity was analysed by immunostaining of Actin and VE-cadherin. (C) Quantification of the bacterial colonization (upper panel) Ezrin recruitment and cortical actin polymerization at sites of bacterial adhesion (lower panel) was performed using Image J software.
HDMECs were grown in their specific culture medium (Promocell #C-12210) and confluent monolayers were infected with 2C4.3. Briefly, bacteria were precultured in prewarmed cell culture medium for 1 h 30 min at 37° C. 5% CO2. The OD600 was adjusted to 0.1 and HDMECs were then overlaid with bacteria for 30 min (MOI of 100). Unbound bacteria were removed by three washes in cell culture media and infection was allowed to proceed for 1 h at 37° C. 5% CO2. Gentamicin was added at 150 μg/ml for 1 h, then after three washes in cell culture media, Trifluoperazine was applied where mentioned at 50 μM for 20 min. After three washes in cell culture media, cells were allowed to recover for 1 h in cell culture media. At the indicated time, cells were fixed with 4% Paraformaldehyde for 10 min. Immunolabelling was then performed as above described in example 4, using DAPI, Alexa Fluor 633 Phalloidin, Polyclonal antisera raised against Ezrin, obtained from Pr P. Mangeat (CRBM, Montpellier, France) and anti-human VE-Cadherin (eBioscience #BMS158).

Compound | dispersion of compact meningococcal microcolonies established at the endothelial cell surface [1] | bactericidal effect [2] | Ezrin recruitment and cortical actin polymerization at bacterial adhesion sites [3] | VE-cadherin staining / endothelial cell junction integrity [3] | bacterial colonies at the endothelial cell surface [3] | viable count of the culture ([2]; Trifluoperazine 10 to 30 μM, culture contained 10^7 CFU/ml)
CN[C@@H]1[C@@H](O)C(O[C@@H]2[C@@H](O)[C@H](O[C@H]3O[C@H]([C@@H](C)NC)CC[C@H]3N)[C@@H](N)C[C@H]2N)OC[C@]1(C)O (stereo partly drawn) [Gentamicin, (3R,4R,5R)-2-{[(1S,2S,3R,4S,6R)-4,6-diamino-3-{[(2R,3R,6S)-3-amino-6-[(1R)-1-(methylamino)ethyl]oxan-2-yl]oxy}-2-hydroxycyclohexyl]oxy}-5-methyl-4-(methylamino)oxane-3,5-diol] | poorly induced the dispersion | killed all bacteria | still induced Ezrin recruitment, cortical actin polymerization | discontinuous distribution of VE-cadherin | reduced the number of colonies | 
CN1CCN(CCCN2c3ccccc3Sc3ccc(C(F)(F)F)cc32)CC1 [Trifluoperazine] | induced their dispersion | moderate bactericidal effect | Few Ezrin recruitment | preserved endothelial cell junction integrity | induced their dispersion; also recorded: induced the dispersion of most of the bacterial colonies | 10^6 CFU/ml
